Assay results published in patent publication US8933019B2, “Antiviral cell-penetrating peptides” (priority 2008, dated 2015).
Read-outs that look alike come from different tables or passages of the source. Bridge positions count the residues as written; N and C are the ends. Square brackets hold non-standard residues; d marks the D form. Peptide text beside a SMILES is read from it. S5 = C=CCCC[C@](C)(N)C(=O)O

How the values were obtained:
HIV-1 AZT-R = details: read-out: IC50 (μM ± SD), HIV-1 AZT-R; RT-resistant isolate, subtype B, MT-2, coreceptor X4
Description: (§1) The inhibitory activity of NYAD-201, and related stapled peptides on infection by laboratory-adapted HIV-1 strains was determined as previously described (Jiang et al. J Exp. Med 174:1557-1563, 1991) with minor modifications. Azidothymidine (AZT) was used as a positive control in the infectivity assays. In brief, 1×10^4 MT-2 cells were infected with HIV-1 at 100 TCID50 (50% tissue culture infective dose) (0.01 MOI [multiplicity of infection]) in 200 μl RPMI 1640 medium containing 10% FBS in the presence or absence of peptides at graded concentrations overnight. The culture supernatants were then removed and fresh media containing freshly prepared test peptide were added. On the fourth day post-infection, 100 μl of culture supernatants were collected from each well, mixed with equal volume of 5% Triton X-100 and tested for p24 antigen by ELISA.
(§2) In addition, NYAD-201, NYAD-202 and NYAD-203 were also tested using several laboratory-adapted and primary isolates in MT-2 cells and PBMC (peripheral blood mononuclear cells), respectively.

HIV-1 IIIB = tested on: HIV-1 IIIB
Description: as §1, §2

HIV-1 MN = details: read-out: IC50 (μM ± SD), HIV-1 MN; laboratory strain, subtype B, MT-2, coreceptor X4
Description: as §1, §2

HIV-1 RF = details: read-out: IC50 (μM ± SD), HIV-1 RF; laboratory strain, subtype B, MT-2, coreceptor X4
Description: as §1, §2

HIV-1 SF2 = details: read-out: IC50 (μM ± SD), HIV-1 SF2; laboratory strain, subtype B, MT-2, coreceptor R5X4
Description: as §1, §2

HIV-1RF/L-323-12-3 = details: read-out: IC50 (μM ± SD), HIV-1RF/L-323-12-3; PR-resistant isolate, subtype B, MT-2, coreceptor X4
Description: as §1, §2

HIV-1 92UG029 = assay: Inhibition of primary HIV-1 isolate, p24 ELISA, PBMC; type: cell-based; details: subtype A, coreceptor X4, read-out: IC50 (μM ± SD), HIV-1 92UG029
Description: (§3) The inhibitory activity of peptides on infection by primary HIV-1 isolates was determined as previously described (Jiang et al., Antimicrob. Agents Chemother. 48:4349-4359, 2004). Peripheral blood mononuclear cells (PBMCs) were isolated from the blood of healthy donors at the New York Blood Center by standard density gradient centrifugation using Histopaque-1077 (Sigma-Aldrich). The cells were cultured at 37° C. for 2 hr. Nonadherent cells were collected and resuspended at 5×10^6 cells/ml RPMI-1640 medium containing 10% FBS, 5 μg/ml PHA, and 100 U/ml IL-2 (Sigma-Aldrich), followed by incubation at 37° C. for 3 days. The PHA-stimulated cells (5×10^4 cells/well) were infected with primary HIV-1 isolates at 500 TCID50 (0.01 MOI) in the absence or presence of peptide inhibitor at graded concentrations. Culture media were changed every 3 days and replaced with fresh media containing freshly prepared inhibitor. The supernatants were collected 7 days post-infection and tested for p24 antigen by ELISA (FIG. 6). The percent inhibition of p24 production, IC50 and IC90 values were calculated by the GraphPad Prism software (GraphPad Software Inc.).
(§4) NYAD-201, NYAD-202 and NYAD-203 were also tested against a set of primary HIV-1 isolates in PBMC representing mostly group M and one from group O with diverse coreceptor usage. […] The inhibitory activities of the peptides against this diverse range of primary isolates were similar, indicating its effectiveness against a wide range of HIV-1 isolates.

HIV-1 93RW024 = assay: as above; type: cell-based; details: subtype A, coreceptor R5X4, read-out: IC50 (μM ± SD), HIV-1 93RW024
Description: as §3, §4

HIV-1 RU570 = assay: as above; type: cell-based; details: subtype G, coreceptor R5, read-out: IC50 (μM ± SD), HIV-1 RU570
Description: as §3, §4

[1] = Cytotoxicity, XTT method, MT-2 cells; type: cell-based, human; details: human, read-out: CC50 (μM) ± SD, cytotoxicity in MT-2 cells
Description: (§5) Cytotoxicity of peptides in MT-2 cells and PBMC was measured by the XTT [(sodium 3′-(1-(phenylamino)-carbonyl)-3,4-tetrazolium-bis(4-methoxy-6-nitro) bezenesulfonic acid hydrate)] method as previously described (Jiang et al., 2004). Briefly, for MT-2 cells, 100 μl of a peptide at graded concentrations was added to an equal volume of cells (1×10^5 cells/ml) in 96-well plates followed by incubation at 37° C. for 4 days, which ran parallel to the neutralization assay in MT-2 (except medium was added instead of virus). In the case of PBMC, 5×10^5 cells/ml were used and the cytotoxicity was measured after 7 days. After addition of XTT (PolySciences, Inc.), the soluble intracellular formazan was quantitated colorimetrically at 450 nm 4 hr later with a reference at 620 nm. The percent of cytotoxicity and the CC50 values were calculated as above (Table 2 and Table 3).

MT-2 cells = assay: Cytotoxicity, XTT method, MT-2 cells; type: cell-based, human; details: 4 days
Description: as §5

Jurkat cells = assay: Cytotoxicity, LDH leakage, Jurkat cells; type: cell-based; details: 30 min, 2 hr and 4 hr of exposure
Description: Cytotoxicity was also evaluated in Jurkat cells using a Promega LDH leakage detection kit. Jurkat cells were plated at 10^4 cells/well in a volume of 200 μl. The test was performed after 30 min, 2 hr and 4 hr of exposure to the NYAD-201, NYAD-202 and NYAD-203 compounds.

CSCC[C@@H]1NC(=O)[C@H](Cc2c[nH]c3ccccc23)NC(=O)[C@@](C)(NC(=O)[C@H](CCCCN)NC(=O)[C@@H](NC(=O)[C@H](CCC(=O)O)NC(=O)[C@H](CCC(N)=O)NC(=O)[C@H](C)N)C(C)C)CCCC=CCCC[C@@](C)(C(=O)N[C@H](C(=O)N[C@@H](CC(C)C)C(=O)N[C@@H](CC(C)C)C(=O)N[C@H](C(=O)N[C@@H](C)C(N)=O)C(C)C)[C@@H](C)O)NC(=O)[C@H]([C@@H](C)O)NC1=O [NYAD-201, AQEVKXWMTXTLLVA] (H-AQEVK[S5]WMT[S5]TLLVA-NH2; staple 6-10)
IC50 (HIV-1 AZT-R): 8 ± 1.27 µM
IC50 (HIV-1 IIIB; read-out: IC50 (μM ± SD), HIV-1 IIIB, laboratory strain, subtype B, MT-2, coreceptor X4): 4.29 ± 0.62 µM
IC50 (HIV-1 IIIB; read-out: IC50 (μM) ± SD, antiviral activity against HIV-1 IIIB, MT-2 cells, p24 production, fourth day post-infection): 4.29 ± 0.62 µM
IC50 (HIV-1 MN): 3.03 ± 0.61 µM
IC50 (HIV-1 RF): 2.84 ± 0.63 µM
IC50 (HIV-1 SF2): 5.06 ± 1.37 µM
IC50 (HIV-1RF/L-323-12-3): 5.6 ± 0.5 µM
IC50 (HIV-1 92UG029): 7.88 ± 1.01 µM
IC50 (HIV-1 93RW024): 9.88 ± 0.3 µM
IC50 (HIV-1 RU570): 7.48 ± 1.21 µM
CC50 at 4 days [1]: > 115 µM
CC50 (MT-2 cells): > 115 µM
Cytotoxicity in Jurkat cells (LDH leakage) (Jurkat cells): did not demonstrate toxicity
